The source made the active and inactive calls. The rule behind the calls is not given here.
How the values were obtained:
[1] = Cytotoxicity against human Jurkat cells assessed as cell viability at 50 uM after 48 hrs by XTT assay relative to control; format: cell-based; settings: read-out: Activity
[2] = Cytotoxicity against human Jurkat cells assessed as cell viability at 250 uM after 48 hrs by XTT assay relative to control; format: cell-based; settings: read-out: Activity
[3] = Cytotoxicity against human Jurkat cells assessed as cell viability at 10 uM after 48 hrs by XTT assay relative to control; format: cell-based; settings: read-out: Activity
[4] = Cytotoxicity against human Jurkat cells assessed as cell viability at 100 uM after 48 hrs by XTT assay relative to control; format: cell-based; settings: read-out: Activity
[5] = Cytotoxicity against human Jurkat cells assessed as cell viability at 1 uM after 48 hrs by XTT assay relative to control; format: cell-based; settings: read-out: Activity
SK-BR-3 [6] = test: Cytotoxicity against human SK-BR-3 cells assessed as decrease in cell proliferation index at 250 uM after 91 hrs by real-time cell analysis; format: cell-based; settings: sk-br-3, 91 h
SK-BR-3 [7] = test: Cytotoxicity against human SK-BR-3 cells assessed as decrease in cell proliferation index at 1 to 100 uM after 91 hrs by real-time cell analysis; format: cell-based; settings: sk-br-3, 91 h
[8] = n-Octanol-water partition coefficient, log P of the compound after 15 mins by shake flask method; format: physicochemical
[9] = Selectivity ratio of IC50 for electric eel AChE to IC50 for equine serum BChE
Cholinesterase = Cholinesterase (Equus caballus, UniProt P81908); test: Inhibition of equine serum BChE by spectrophotometric-based Ellman's method
Acetylcholinesterase [10] = biological target: Acetylcholinesterase (Electrophorus electricus, UniProt O42275); test: Inhibition of electric eel AChE by spectrophotometric-based Ellman's method
[11] = biological target: Acetylcholinesterase (Electrophorus electricus) (UniProt O42275); test: Potency index, ratio of rivastigmine IC50 to compound IC50 for electric eel AChE
[12] = biological target: Acetylcholinesterase (Electrophorus electricus) (UniProt O42275); test: Pseudo-irreversible inhibition of electric eel AChE at 5 to 9 uM by spectrophotometric-based Ellman's method
SK-BR-3 [13] = test: Cytotoxicity against human SK-BR-3 cells assessed as decrease in cell proliferation index at 250 uM by real-time cell analysis; format: cell-based; settings: sk-br-3, 250 µM, TDE = time-dependent effect
[14] = biological target: Acetylcholinesterase (Electrophorus electricus) (UniProt O42275); test: Pseudo-irreversible inhibition of electric eel AChE at 4 to 8 uM by spectrophotometric-based Ellman's method
[15] = biological target: Acetylcholinesterase (Electrophorus electricus) (UniProt O42275); settings: 6 to 10 uM
Description: Pseudo-irreversible inhibition of electric eel AChE at 6 to 10 uM by spectrophotometric-based Ellman's method

Acetylcholinesterase [16] = biological target: Acetylcholinesterase (Torpedo californica, UniProt P04058); test: Pseudo-irreversible inhibition of Torpedo californica AChE using acetylthiocholine as substrate by cornish bowden plot analysis; parameters: species or system Tetronarce californica
Sequence of Acetylcholinesterase (Torpedo californica, UniProt P04058) (P04058 whole entry): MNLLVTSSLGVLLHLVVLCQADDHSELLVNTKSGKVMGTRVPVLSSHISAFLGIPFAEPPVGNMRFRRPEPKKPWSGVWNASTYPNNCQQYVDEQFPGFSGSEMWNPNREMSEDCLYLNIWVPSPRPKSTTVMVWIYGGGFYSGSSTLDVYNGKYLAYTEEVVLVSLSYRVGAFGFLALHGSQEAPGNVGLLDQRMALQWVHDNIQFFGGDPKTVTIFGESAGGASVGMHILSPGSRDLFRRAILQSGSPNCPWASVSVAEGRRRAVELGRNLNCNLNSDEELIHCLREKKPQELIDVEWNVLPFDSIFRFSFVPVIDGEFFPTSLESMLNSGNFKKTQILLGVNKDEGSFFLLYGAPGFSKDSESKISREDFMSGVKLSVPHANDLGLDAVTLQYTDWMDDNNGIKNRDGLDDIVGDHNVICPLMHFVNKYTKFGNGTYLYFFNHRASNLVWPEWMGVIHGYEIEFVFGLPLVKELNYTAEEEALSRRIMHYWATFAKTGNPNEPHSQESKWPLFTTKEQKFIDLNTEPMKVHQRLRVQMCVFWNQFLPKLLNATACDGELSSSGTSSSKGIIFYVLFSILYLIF

Sequence of Cholinesterase (P81908 whole entry): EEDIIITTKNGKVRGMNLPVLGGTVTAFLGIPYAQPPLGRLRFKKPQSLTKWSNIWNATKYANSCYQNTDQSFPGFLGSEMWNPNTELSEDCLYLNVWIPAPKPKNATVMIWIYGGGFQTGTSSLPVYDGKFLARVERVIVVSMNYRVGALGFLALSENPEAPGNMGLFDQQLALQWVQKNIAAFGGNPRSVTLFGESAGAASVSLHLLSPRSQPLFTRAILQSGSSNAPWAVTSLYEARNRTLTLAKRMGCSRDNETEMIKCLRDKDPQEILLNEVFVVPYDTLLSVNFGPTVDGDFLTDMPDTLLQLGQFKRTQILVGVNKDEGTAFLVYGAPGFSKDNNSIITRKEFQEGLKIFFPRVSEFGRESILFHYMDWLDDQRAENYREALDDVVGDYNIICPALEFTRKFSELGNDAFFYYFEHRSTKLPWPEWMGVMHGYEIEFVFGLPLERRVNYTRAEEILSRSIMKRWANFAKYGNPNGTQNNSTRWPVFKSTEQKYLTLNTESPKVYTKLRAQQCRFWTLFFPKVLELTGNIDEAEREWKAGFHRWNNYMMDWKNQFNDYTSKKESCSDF
Sequence of Acetylcholinesterase (Electrophorus electricus) (O42275 24-633 limits assumed): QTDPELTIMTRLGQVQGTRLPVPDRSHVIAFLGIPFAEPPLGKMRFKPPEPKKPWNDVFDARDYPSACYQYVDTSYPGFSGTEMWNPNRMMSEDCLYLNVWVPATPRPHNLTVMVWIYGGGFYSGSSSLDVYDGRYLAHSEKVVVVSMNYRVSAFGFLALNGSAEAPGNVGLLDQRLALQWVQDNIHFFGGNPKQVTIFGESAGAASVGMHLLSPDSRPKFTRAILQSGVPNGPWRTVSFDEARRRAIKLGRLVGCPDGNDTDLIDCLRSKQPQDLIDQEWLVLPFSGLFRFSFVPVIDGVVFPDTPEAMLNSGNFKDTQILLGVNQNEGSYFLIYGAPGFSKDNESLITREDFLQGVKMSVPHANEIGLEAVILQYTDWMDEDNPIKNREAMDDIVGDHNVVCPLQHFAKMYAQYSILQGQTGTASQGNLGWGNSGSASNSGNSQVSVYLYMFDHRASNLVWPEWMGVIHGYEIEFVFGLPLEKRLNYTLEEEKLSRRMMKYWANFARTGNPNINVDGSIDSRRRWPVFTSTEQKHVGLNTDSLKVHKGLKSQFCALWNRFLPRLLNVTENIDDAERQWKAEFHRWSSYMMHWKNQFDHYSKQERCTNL
Sequence of Acetylcholinesterase (Electrophorus electricus, UniProt O42275) (O42275 whole entry): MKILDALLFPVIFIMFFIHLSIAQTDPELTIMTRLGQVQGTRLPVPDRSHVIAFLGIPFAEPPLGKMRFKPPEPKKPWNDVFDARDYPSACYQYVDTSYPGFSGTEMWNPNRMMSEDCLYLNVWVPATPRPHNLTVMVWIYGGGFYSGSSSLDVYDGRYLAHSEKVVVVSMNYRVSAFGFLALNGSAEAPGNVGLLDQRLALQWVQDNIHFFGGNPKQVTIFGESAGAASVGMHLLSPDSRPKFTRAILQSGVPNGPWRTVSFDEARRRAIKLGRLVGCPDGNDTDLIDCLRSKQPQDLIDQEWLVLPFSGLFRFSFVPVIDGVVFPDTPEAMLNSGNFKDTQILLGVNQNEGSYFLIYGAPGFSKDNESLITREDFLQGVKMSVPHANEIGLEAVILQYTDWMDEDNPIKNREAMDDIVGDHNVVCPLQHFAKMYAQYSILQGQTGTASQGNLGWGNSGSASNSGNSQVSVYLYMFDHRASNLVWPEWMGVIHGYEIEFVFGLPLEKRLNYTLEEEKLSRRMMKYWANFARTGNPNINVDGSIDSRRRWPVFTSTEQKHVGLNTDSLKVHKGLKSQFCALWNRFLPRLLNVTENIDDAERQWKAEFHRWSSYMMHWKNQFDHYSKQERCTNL

Structure (SMILES)	logP at 0.25 h [8]	Ratio IC50 [9]	IC50 (Cholinesterase)	IC50 (Acetylcholinesterase [10])	further results
C[C@@H](NC(=O)OCC(F)(F)C(F)F)c1nc2ccc(F)cc2s1	2.92	0.27	25 µM	6.75 µM	viability at 48 h, 50 µM [1]: 89.3%; viability at 48 h, 250 µM [2]: 80.3%; viability at 48 h, 10 µM [3]: 85.3%; viability at 48 h, 100 µM [4]: 82.9%; viability at 48 h, 1 µM [5]: 93%; Activity (SK-BR-3 [6]): Toxic; Activity (SK-BR-3 [7]): Non-toxic; Ratio IC50 [11]: < 10; inhibition [12]: Active
C[C@@H](NC(=O)OCC(F)(F)C(F)(F)C(F)(F)F)c1nc2ccc(F)cc2s1	3.2	1.1	74.5 µM	81.9 µM	
C[C@@H](NC(=O)OCC(Cl)(Cl)Cl)c1nc2ccc(F)cc2s1	2.34	11.1	8.31 µM	92.2 µM	
CCCOC(=O)N[C@H](C)c1nc2ccc(F)cc2s1	4.56	0.38	34.6 µM	13.1 µM	
C[C@@H](NC(=O)OC(C)(C)C)c1nc2ccc(F)cc2s1	4.41	0.46	23.1 µM	10.5 µM	
C[C@@H](NC(=O)OCCCl)c1nc2ccc(F)cc2s1	3.09	0.31	41.2 µM	12.7 µM	
COCCOC(=O)N[C@H](C)c1nc2ccc(F)cc2s1	3.35	0.85	66.3 µM	56.2 µM	
COC(=O)N[C@H](C)c1nc2ccc(F)cc2s1	2.5	0.15	90.3 µM	13.6 µM	
C[C@@H](NC(=O)OCCBr)c1nc2ccc(F)cc2s1	3.17	0.3	38.4 µM	11.4 µM	
CCCCOC(=O)N[C@H](C)c1nc2ccc(F)cc2s1	4.82	0.23	40.9 µM	9.26 µM	viability at 48 h, 50 µM [1]: 88.7%; viability at 48 h, 250 µM [2]: 49.5%; viability at 48 h, 10 µM [3]: 80.2%; viability at 48 h, 100 µM [4]: 66.8%; viability at 48 h, 1 µM [5]: 90.3%; Activity (SK-BR-3 [7]): Non-toxic; Ratio IC50 [11]: < 10; Activity (SK-BR-3 [13]): tde
CC(C)COC(=O)N[C@H](C)c1nc2ccc(F)cc2s1	4.24	0.32	40.2 µM	12.9 µM	
CCOC(=O)N[C@H](C)c1nc2ccc(F)cc2s1	4.2	0.3	20.1 µM	6.06 µM	viability at 48 h, 50 µM [1]: 87.9%; viability at 48 h, 250 µM [2]: 77%; viability at 48 h, 10 µM [3]: 87.6%; inhibition [14]: Active; viability at 48 h, 100 µM [4]: 85.6%; viability at 48 h, 1 µM [5]: 87.4%; Ratio IC50 [11]: < 10
CC(C)OC(=O)N[C@H](C)c1nc2ccc(F)cc2s1	5.33	0.51	32.7 µM	16.5 µM	
C[C@@H](NC(=O)OCC(F)(F)F)c1nc2ccc(F)cc2s1	2.69	0.64	63.4 µM	40.5 µM	
C[C@@H](NC(=O)OCC(F)(F)Cl)c1nc2ccc(F)cc2s1	2.82	0.32	25.6 µM	8.14 µM	viability at 48 h, 50 µM [1]: 89.6%; viability at 48 h, 250 µM [2]: 74%; viability at 48 h, 10 µM [3]: 86.6%; viability at 48 h, 100 µM [4]: 85.7%; viability at 48 h, 1 µM [5]: 91.1%; Ratio IC50 [11]: < 10; inhibition [15]: Active
CCN(C)C(=O)Oc1cccc([C@H](C)N(C)C)c1 [RIVASTIGMINE]					Ki (Acetylcholinesterase [16]): 0.033 M⁻¹ s⁻¹
C[C@@H](NC(=O)OCCCCl)c1nc2ccc(F)cc2s1	1.92	2.07	38.8 µM	80.5 µM	
